Data taken from US20100056458A1, “Peptides Inhibiting Angiotensin-Converting Enzyme” (CAMPINA NEDERLAND HOLDING B.V., priority 2005, published 2010).

The substances below were run on angiotensin-converting enzyme (ACE) (assay: HPLC with mass spectrometry and on-line bioassay unit for assessing ACE-inhibiting activity). Conditions: another batch of the same caseinate.
Type: biochemical
From the text: The identity and the activity of the peptides and their mixtures can be determined by known methods, e.g. as described by Van Elswijk et al. J Chromatography A, 1020 (2003) 45-58, involving liquid chromatography coupled to mass spectroscopy, and on-line bioassay. […] The IC50 can be determined in vitro as described by V. Vermeirsen, J. van Camp & J. Verstraete, “Optimisation and validation of an angiotensin-converting enzyme inhibition assay for the screening of bioactive peptides”. J. Biochem. Biophys. Methods 51, 75-87 (2002).
The peptides obtained according to example I, were analysed using HPLC as described by Van Elswijk et al. J Chromatography A 1020 (2003) 45-58. The HPLC eluate was divided over a mass spectrometry for determining the peptide structure and a bioassay unit for assessing the ACE-inhibiting activity. The following peptides were identified: AVP (SEQ ID No. 25), LV (SEQ ID No. 5) and IV (SEQ ID No. 1). Another batch of the same caseinate contained the peptides KIHP (SEQ ID No. 28), KK (SEQ ID No. 73), VPYPQR (SEQ ID No. 20), and KYKVPQ (SEQ ID No. 91). Starting with other casein sources the peptides VLGPV (SEQ ID No. 10), VLPVPQK (SEQ ID No. 75), VPYPQ (SEQ ID No. 21), KK (SEQ ID No. 73), VNELSK (SEQ ID No. 76), and […] (SEQ ID No. 33) were found.
Similarly the product from example II was analysed and contained IAEKT (SEQ ID No. 57), LDIQK (SEQ ID No. 74) and LKALP (SEQ ID No. 64). Starting from other whey protein sources WPC 60 or whey protein isolate, VLGPV (SEQ ID No. 10), VLPVPQ (SEQ ID No. 18), MKGLDI (SEQ ID No. 41), LR (SEQ ID No. 44), MHIRLS (SEQ ID No. 48), IIA (SEQ ID No. 56) were identified.

Substance	identified as ACE-inhibiting peptide
KYKVPQ (listed as Bos taurus)	contained
VPYPQR (listed as Bos taurus) [β-casein-derived peptide]	contained
KIHP (listed as Bos taurus) [β-casein-derived peptide]	contained

Same assay, conditions: hydrolysate of example I (calcium caseinate)

Substance	identified as ACE-inhibiting peptide
AVP	identified

Same assay, conditions: other casein sources

Substance	identified as ACE-inhibiting peptide
VLPVPQK (listed as Bos taurus)	found
FFVAPFPEVFG (listed as Bos taurus)	found
VNELSK (listed as Bos taurus)	found
VPYPQ (listed as Bos taurus) [β-casein-derived peptide]	found
VLGPV (listed as Bos taurus) [β-casein peptide]	found

Same assay, conditions: other whey protein sources WPC 60 or whey protein isolate

Substance	identified as ACE-inhibiting peptide
IIA (listed as Bos taurus)	identified
MHIRLS (listed as Bos taurus)	identified
VLGPV (listed as Bos taurus) [β-casein peptide]	identified
MKGLDI (listed as Bos taurus) [β-lactoglobulin-derived peptide]	identified
VLPVPQ (listed as Bos taurus)	identified

Same assay, conditions: product from example II (WPC 80 hydrolysate)

Substance	identified as ACE-inhibiting peptide
LKALP (listed as Bos taurus) [β-lactoglobulin-derived peptide]	contained
IAEKT (listed as Bos taurus) [β-lactoglobulin-derived peptide]	contained
LDIQK (listed as Bos taurus) [β-lactoglobulin-derived peptide]	contained
